# Data from patent US20210267989A1, “Novel Compounds for the Treatment, Alleviation or Prevention of Disorders Associated with Tau Aggregates” (AC Immune SA, priority 2018, published 2021).
# Legend:
# [1] = target: T1, Aggregated human Tau in human neuroblastoma cell line overexpressing full-length human Tau P301L (Homo sapiens, UniProt P10636, P618L); test: Reduction of intracellular Tau aggregation (AlphaLISA, aggregated Tau normalized to total Tau); assay type: cell-based; conditions: compound at 5 μM, 24 h, relative to DMSO-treated cells
# T1 construct: overexpressing the full-length form of human Tau carrying the P301L mutation; expressed in transfected cells; host or cells: human neuroblastoma cell line (G418 selection)
# T1 sequence (P10636 1-441 isoform P10636-8 P301L): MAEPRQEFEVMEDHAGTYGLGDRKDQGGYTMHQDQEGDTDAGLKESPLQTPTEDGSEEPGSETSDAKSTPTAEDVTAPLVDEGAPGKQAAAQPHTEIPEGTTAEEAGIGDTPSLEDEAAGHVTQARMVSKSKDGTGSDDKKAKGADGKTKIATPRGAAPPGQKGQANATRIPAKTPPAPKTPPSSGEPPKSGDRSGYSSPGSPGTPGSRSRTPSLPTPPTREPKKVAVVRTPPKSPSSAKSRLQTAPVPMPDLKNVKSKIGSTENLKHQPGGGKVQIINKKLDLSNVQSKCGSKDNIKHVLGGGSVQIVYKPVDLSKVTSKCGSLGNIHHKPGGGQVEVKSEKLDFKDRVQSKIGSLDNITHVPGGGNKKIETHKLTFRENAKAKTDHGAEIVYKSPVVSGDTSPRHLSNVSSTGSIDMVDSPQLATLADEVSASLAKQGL
# Procedure: Reduction of Intracellular Tau Aggregation
# A human neuroblastoma cell line overexpressing the full-length form of human Tau carrying the P301L mutation was cultured in complete medium [DMEM-F12 4.5 g/L Glutamax (Invitrogen), 15% FBS (Biochrom), 1% Peni/Strep (Invitrogen) supplemented with 2.5 μg/ml of G418 (Sigma-Aldrich) selection antibiotic]. The day before the experiment 5×10^5 cells/well were plated in a 6 well plate in 3 mL of complete medium. The next day, cells were incubated with DMSO or a compound of the present invention at 5 μM for additional 24 h at 37° C. After incubation, cells were trypsinized, resupsended in 100 μl of homogenization buffer [25 mM Tris-HCl pH 7.4, 150 mM NaCl, 1 mM EDTA, 1 mM EGTA containing phosphatase inhibitors (30 mM NaF, 0.2 mM Na3VO4, 1 nM okadaic acid, 1 mM PMSF, 5 mM Na4P2O7) and protease inhibitor cocktail (Complete™, Roche)], and then physically lysed with three rapid cycles of freezing and thawing. Samples were then directly tested in the AlphaLISA assay.
# Phosphorylated, aggregated, and total Tau were quantified by AlphaLisa using the following antibody pairs: • HT7-Acceptor beads+biotin (BT)-Tau13-Donor beads: Total Tau • HT7-Acceptor beads+biotin (BT)-HT7-Donor beads: Aggregated human Tau
# The Tau13 (Abcam) was biotinylated using EZ-Link® NHS-PEO Solid Phase biotinylation kit (Thermo Scientific), while the HT7-biotin was from a commercial source (Thermo Scientific).
# For each antibody pairs the concentration of acceptor beads and biotinylated antibodies was optimized. All samples were first tested in a dilution series in PBS in order to identify the linear range and optimal dilution for each sample and assay. For the final protocol, the following reagents were added in a 384-well white OptiPlate (PerkinElmer): • 5 μL of test diluted sample • 20 μL of the mixture biotin-mAb acceptor beads at the following final concentrations: • HT7-BT at 1.25 nM in combination with HT7-Acc beads at 10 μg/ml • Tau13-BT at 5 nM in combination with HT7-Acc beads at 2.5 μg/ml
# After incubation of this mixture at room temperature for 1 h, 25 μL of Streptavidin Donor beads (Perkin Elmer) at 25 μg/mL were added in the dark. Plates were analyzed after 30 min incubation using the EnSpire Alpha instrument and EnSpire Workstation version 3.00. Data for aggregated Tau were normalized to total Tau and then expressed as percentage of the DMSO-treated cells.
# [2] = target: T2, recombinant full-length (fl)Tau aggregates (longest isoform of human Tau, 2N4R; 441 amino acids) (Homo sapiens, UniProt P10636); test: Full-length Tau (flTau) disaggregation assay by Thioflavin T (ThT); assay type: biochemical; conditions: ThT fluorescence; 2 μM flTau aggregates, 30 minutes at RT
# T2 construct: 35 μM of recombinant full-length (fl)Tau in PBS were aggregated for 24 hours; made in house; host or cells: bacteria
# T2 sequence (P10636 1-441 isoform P10636-8): as the sequence (P10636 1-441 isoform P10636-8 P301L) above, with L301P counted along it
# Procedure: Full-Length Tau (flTau) Disaggregation Assay by Thioflavin T (ThT)
# The longest isoform of human Tau (2N4R; 441 amino acids) was expressed in bacteria and purified. For the Tau disaggregation assay by ThT, 35 μM of recombinant full-length (fl)Tau in PBS were aggregated for 24 hours at 37° C. in presence of 50 μM of heparin (Sigma-Aldrich) and 10 mM of DTT (Sigma-Aldrich) under shaking at 750 RPM. Compounds were dissolved in anhydrous dimethyl sulfoxide (DMSO, Sigma-Aldrich) to reach a concentration of 10 mM. flTau aggregates and serial dilutions of compounds were mixed together in PBS (volume 50 μL) to a final concentration of 2 μM of flTau aggregates and from 160 to 0.04 μM of compounds. The mixture was incubated for 30 minutes at room temperature (RT), then 40 μL of this mixture were transferred into a black 384-well plate assay (Perkin-Elmer) and mixed with 10 μL of 100 μM ThT in 250 mM glycine (both from Sigma-Aldrich) in PBS. Fluorescence (relative fluorescence units; RFU) was measured in monoplicate or duplicate on a Tecan reader (excitation: 440 nm; emission: 485 nm). Percentage of flTau disaggregation was then calculated and the half maximal effective concentration (EC50) was determined using GraphPad Prism version 5 (GraphPad Software) assuming a one-binding site fitting model.
# [3] = target: T3, Tau K18 fragment aggregates (amino acids 244 to 372 of human Tau441) (Homo sapiens, UniProt P10636); test: Tau K18 disaggregation assay by ThT; assay type: biochemical; conditions: ThT fluorescence; 2 μM K18 aggregates, 30 minutes at RT
# T3 construct: encompassing amino acids 244 to 372 of the longest isoform (2N4R) of human Tau441; host or cells: bacteria
# T3 sequence (P10636 561-689): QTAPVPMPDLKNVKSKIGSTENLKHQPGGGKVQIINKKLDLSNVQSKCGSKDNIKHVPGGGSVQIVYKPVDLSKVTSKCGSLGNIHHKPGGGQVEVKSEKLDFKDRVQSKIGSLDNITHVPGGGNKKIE
# Procedure: Tau K18 Disaggregation Assay by ThT
# The Tau K18 fragment, encompassing amino acids 244 to 372 of the longest isoform (2N4R) of human Tau441, was expressed in bacteria and purified or bought from SignalChem. For the K18 disaggregation assay by ThT, 35 μM of recombinant K18 in PBS were aggregated for 24 hours at 37° C. in presence of 50 μM of heparin (Sigma-Aldrich) and 10 mM of DTT (Sigma-Aldrich) under shaking at 750 RPM. Compounds were dissolved in anhydrous dimethyl sulfoxide (DMSO, Sigma-Aldrich) to reach a concentration of 10 mM. K18 aggregates and serial dilutions of compounds were mixed together in PBS (volume 50 μL) to a final concentration of 2 μM of K18 aggregates and from 160 to 0.04 μM of compounds. The mixture was incubated for 30 minutes at room temperature (RT), then 40 μL of this mixture were transferred into a black 384-well plate assay (Perkin-Elmer) and mixed with 10 μL of 100 μM ThT in 250 mM glycine (both from Sigma-Aldrich) in PBS. Fluorescence (relative fluorescence units; RFU) was measured in monoplicate or duplicate on a Tecan reader (excitation: 440 nm; emission: 485 nm). Percentage of K18 disaggregation was then calculated and half maximal effective concentration (E050) was determined using GraphPad Prism version 5 (GraphPad Software) assuming a one-binding site fitting model.
# [4] = target: T4, monomeric flTau (human Tau 2N4R; 441 amino acids) (Homo sapiens, UniProt P10636); test: Full-length Tau inhibition of aggregation assay by ThT (seeded with AD brain PHF); assay type: biochemical; conditions: 4 μM monomeric flTau + AD brain PHF 1:200, 72 h at 37° C.
# T4 construct: purchased Biotechne (USA); host or cells: E coli
# T4 sequence (P10636 1-441 isoform P10636-8): as the sequence (P10636 1-441 isoform P10636-8 P301L) above, with L301P counted along it
# Procedure: Full-Length Tau (fIT) Inhibiton of Aggregation Assay by ThT
# The isoform of human Tau (2N4R; 441 amino acids) was purchased from Biotechne (USA). The protein was expressed in bacteria E coli, purified and concentrated in PBS to a final concentration of 50 μM.
# To induce Tau aggregation, 4 μM of monomeric flTau was incubated for 72 hours at 37° C. under agitation cycles consisting of both orbital shaking and mixing function using the Hula Mixer (Life Technologies) with Tau paired-helical filaments (PHF) enriched from the post-mortem brain of one Alzheimer's disease (AD) patient obtained from an external source (Tissue Solutions) diluted 1:200. The enrichment procedure was modified from Jicha et al, 1997 (Journal of Neuroscience Research 48:128-132 (1997)) and Rostagno and Ghiso, 2009 (Current protocols in cell biology (2009), Chapter 3, Unit 3.33 3.33.1-33). […]
# To test the capability of compounds of this invention to inhibit Tau aggregation, serial dilution of compounds in DMSO were added to the monomeric flTau/PHF mix prior incubation. […] Fluorescence was measured in monoplicate on a Tecan reader Spark using filter (excitation at 448 nm/BW 7 nm, emission at 485 nm/BW 20 nm). A dose response type of curve was obtained out to two independent experiments each with technical duplicates and the IC50 was calculated using GraphPad Prism 7.03.
SMILES,% Reduction of intracellular Tau aggregation [1],EC50 [2] [µM],EC50 [3] [µM],IC50 [4] [µM]
COc1ccc2c(c1)c1c(n2C)CN(c2ccc3oc(N(C)C)nc3c2)CC1 [Example 21],+ (+ % 25 < x < 10),,< 10,
c1ccc2c3c([nH]c2c1)CN(c1ccc(N2CCOCC2)nc1)CC3 [Example 44],+++ (+++ % > 50),,< 10,0.39
Cn1c2c(c3ccccc31)CCN(c1ccc(N3CCOCC3)cn1)C2 [Example 45],++ (++ % 50 < x < 25),,< 10,
Cn1c2c(c3ccccc31)CCN(c1ccc(N3CCOCC3)nc1)C2 [Example 46],++ (++ % 50 < x < 25),,< 10,1.2

# Continued, in another order:
% Reduction of intracellular Tau aggregation [1],EC50 [2] [µM],SMILES,EC50 [3] [µM],IC50 [4] [µM]
+ (+ % 25 < x < 10),< 10,CN(C)c1nc2ccc(N3CCc4c(n(C)c5ccc(F)cc45)C3)cc2o1 [Example 12],,
+ (+ % 25 < x < 10),,c1ccc2c3c([nH]c2c1)CN(c1ccc2nc(N4CCOCC4)sc2c1)CC3 [Example 38],< 10,
++ (++ % 50 < x < 25),,c1ccc2c3c([nH]c2c1)CN(c1ccc(N2CCOCC2)cn1)CC3 [Example 43],< 10,
